Test results taken from US5416090A, “Method of treating inflammation” (priority 1992, dated 1995).
Read-outs that look alike come from different tables or passages of the source.

How the values were obtained:
[1] = test system: carrageenan induced paw swelling; experiment: Carrageenan edema model (acute paw inflammation); type: in vivo, rat (Lewis); conditions: Rattus norvegicus, ip; read-out: ED50, inhibition of carrageenan induced paw swelling
[2] = test system: delayed type hypersensitivity (picryl chloride induced foot pad swelling); experiment: Murine delayed type hypersensitivity (DTH) response, picryl chloride; type: in vivo, mouse (Balb/c)
Method: (§1) The activity of ergoline compounds was also evaluated in a murine delayed-type hypersensitivity (DTH) assay. The DTH assay was performed in substantial accordance with the method set forth in Example 1. Briefly, mice were sensitized by topical administration of picryl chloride on day 1 of the assay. On day 4 paw size was determined and recorded and the paw was then challenged with picryl chloride. The challenged paw was remeasured on day 5 to quantitate the DTH response via the increase in paw size.
Male Balb/c mice (Charles River) weighing 20 to 25 g were used in all DTH studies. When adrenalectomized studies were carried out, sham surgery and adrenalectomized mice were obtained from the vendor. Animals were maintained on a 12:12 hour light:dark cycle. Mice were allowed ad lib access for food (Purina lab chow) and water (normal saline for adrenalectomized animals).
A DTH response was assessed by measuring the degree of rear foot pad swelling induced by picryl chloride. On day 0, mice were sensitized with 100 μl of 5% picryl chloride (in ethanol), which was applied to a shaved abdomen. Negative control groups were shaved but not sensitized. On day 3, mice were anesthetized with methoxyflurane, and the baseline rear foot pad thickness was measured with a micrometer (Mitutoyo) in μ, and was recorded in duplicate. Fifty μl of picryl chloride was then applied to each pad with a pipet (Rainen) while the animal was unconscious. The negative controls also received picryl chloride at this point to control for primary irritancy. Twenty-four hours later, the mice were sacrificed by CO2 asphyxiation and each rear foot pad was again measured in duplicate, and any evidence of foot pad swelling was calculated. The mean rear foot swelling change of both pads for each animal from days 3 to 4 was used as the index of immune function in the DTH assay.
Unless otherwise stated all animals were given four subcutaneous doses of test compound just prior to picryl chloride sensitization on day 0, on day 1 and day 2, and just prior to picryl chloride challenge on day 3. In a few experiments, compounds were administered via oral or intraperitoneal routes. All drugs were delivered as suspensions in 1% carboxy-methylcellulose (also contained 0.8% NaCl, 1% polysorbate-80, 1.4% benzyl alcohol). Carboxymethyl-cellulose (1%) was used in control injections.

[3] = test system: lipoidal amine induced arthritis; experiment: Lipoidal amine induced polyarthritis (hind paw volume and weight); type: in vivo, rat (Lewis); conditions: for minimal effective dose: Rattus norvegicus
Method: Lipoidal amine induced polyarthritis is an animal arthritis model originally described by Chang, Y., et al. in Arthritis and Rheumatism 23:62-71 (1980). The lipoidal amine induced polyarthritis results from injection of N,N-dioctadecyl-N^1,N-bis(2-hydroxyethyl) propanediamine (7.5 mg/kg Lewis rat (220-225 g)), which is suspended in oil, intradermally at the base of the tail.

[4] = test system: delayed type hypersensitivity (DTH) in adrenalectomized mice; experiment: DTH response in adrenalectomized (ADX) mice; type: in vivo, mouse (Balb/c); conditions: FIG. 10B
Source text: CMC= carboxymethylcellulose vehicle control; NEG=negative control for DTH; POS=positive control for DTH.
Dopamine agonists are known to elevate circulating glucocorticoid levels, via activation of the hypothalamo-pituitary-adrenal axis. […] Since glucocorticoids are potential endogenous anti-inflammatory substances, this action is one potential mechanism for the anti-inflammatory effect of the ergolines. However, in subsequent inflammation studies, the anti-inflammatory effects of D-1-isopropyl-6-n-propyl-8β-methylthiomethyl ergoline were retained in mice lacking an adrenal gland and therefore devoid of the increase in circulating corticosterone. (FIG. 10B)
Male Balb/c mice (Charles River) weighing 20 to 25 g were used in all DTH studies. When adrenalectomized studies were carried out, sham surgery and adrenalectomized mice were obtained from the vendor. Animals were maintained on a 12:12 hour light:dark cycle. […]
A DTH response was assessed by measuring the degree of rear foot pad swelling induced by picryl chloride. […] On day 3, mice were anesthetized with methoxyflurane, and the baseline rear foot pad thickness was measured with a micrometer (Mitutoyo) in μ, and was recorded in duplicate. […] Twenty-four hours later, the mice were sacrificed by CO2 asphyxiation and each rear foot pad was again measured in duplicate, and any evidence of foot pad swelling was calculated. […]

[5] = Toxicity study / survival in mice; type: in vivo, mouse; conditions: FIG. 4; survival curve
Method: FIG. 4 Effect of 2 or 4 days treatment with compound 1 on a murine delayed type hypersensitivity (DTH) response (panel A) and toxicity study with compound 1 in mice (panel B). NEG=negative control for DTH; POS=positive control for DTH; CMC=carboxymethylcellulose (vehicle).
as §1, with “size. Results of the effects of compound D-1-isopropyl-6-n-propyl-8β-methylthiomethyl ergoline in the murine DTH model are presented in FIG. 4. FIG. 4, Panel A illustrates the efficacy of compound D-1-isopropyl-6-n-propyl-8β-methylthiomethyl ergoline in reducing paw swelling. […] FIG. 4, Panel B is a survival curve of mice treated with varying dosages of D-1-isopropyl-6-n-propyl-8β-methylthiomethyl ergoline.” for “size.”

Structure (SMILES): CCCN1C[C@H](CSC)C[C@@H]2c3cccc4c3c(cn4C(C)C)C[C@H]21 [Compound 1, D-1-isopropyl-6-n-propyl-8β-methylthiomethyl ergoline]
- ED50 [1]: ~0.3 mg/kg
- reduction of paw swelling in DTH ([2]; FIG. 4 Panel A): efficacy
- reduction of DTH paw swelling, 4 day vs two day treatment ([2]; FIG. 4 Panel A, 4 days vs two day treatment schedule): superior efficacy
- dose for anti-inflammatory effects ([2]; FIG. 5): 3 to 10 mg/kg
- effect on increase in hind paw volume and weight ([3]; FIG. 1): Inhibitory effect
- minimal effective dose ([3]; read-out: dosage giving statistically significant decrease in paw volume, FIG. 1 Panel A): ≥ 0.7 mg/kg
- minimal effective dose ([3]; read-out: dosage giving statistically significant decrease in paw weight, FIG. 1 Panel B): ≥ 0.7 mg/kg
- anti-inflammatory effect in mice lacking an adrenal gland ([4]; listed as D-1-isopropyl-6-n-propyl-8β-methylthiomethyl ergoline): retained
- anti-inflammatory effect in mice lacking an adrenal gland ([4]; listed as compound 1): inhibitory effect
- efficacious DTH dosages relative to toxic level [5]: well within the toxic level of the compound
